We go through 27 molecules from patent USRE38257E1, “Piperdine derivatives and hypotensives containing the same” (Ajinomoto Co., Inc., priority 1988, dated 2003).

The test system of this assay is male spontaneously hypertensive rats. Nature of the assay: Decrease in systolic blood pressure in spontaneously hypertensive rats after intravenous bolus injection, indirect (tail-cuff) method. Type of assay: in vivo, rat. Conditions: dose 10 mg/kg i.v. bolus; for Decrease in systolic blood pressure (mmHg) time after administration (hour) 0.5: 0.5 hour after administration; for Decrease in systolic blood pressure (mmHg) time after administration (hour) 4: 4 hours after administration. The protocol:
As test animals, four male spontaneously hypertensive rats (weight 400 to 440 g) that were sufficiently adapted for feeding and in which hypertension was confirmed were used.
Physiological saline aqueous solution containing 2.5% Nicolle and 2.5% ethanol of sample was intravenously administered by bolus injection at a dose of 1 ml per 1 kg of body weight. Systolic blood pressure after administration was measured by the indirect (tail-cuff) method.

The structures appear in SMILES notation.

Take `C1=Cc2ccccc2C(=C2CCN(CCCCCCCC3CCCCC3)CC2)c2ccccc21.Cl` [Example 155, 1-Cyclohexyl-7-(4-(5H-dibenzo[a,d]cyclohepten-5-ylidene)-1-piperidinyl)heptane hydrochloride]: the “Decrease in systolic blood pressure (mmHg) time after administration (hour) 0.5” value (shortened to “Decrease in systolic blood pressure … (hour) 0.5”) was −131 mmHg and the “Decrease in systolic blood pressure (mmHg) time after administration (hour) 4” value (“Decrease in systolic blood pressure … (hour) 4” below) is on record as −105 mmHg.
On the same counts, the results for `C1=Cc2ccccc2C(=C2CCN(CCCCCCCCC3CCCCC3)CC2)c2ccccc21.Cl` [Example 156, 1-Cyclohexyl-8-(4-(5H-dibenzo[a,d]cyclohepten-5-ylidene)-1-piperidinyl)octane hydrochloride] are −110 mmHg and −42 mmHg.
For `O=C(CCCC1CCCCC1)N1CCC(=C2c3ccccc3C=Cc3ccccc32)CC1` [Example 157, 1-(4-Cyclohexylbutanoyl)-4-(5H-dibenzo[a,d]cyclohepten-5-ylidene)piperidine], the “Decrease in systolic blood pressure … (hour) 0.5” value was −32 mmHg and the “Decrease in systolic blood pressure … (hour) 4” value is −13 mmHg.
Take `Cl.N#Cc1ccccc1CN1CCC(=C2c3ccccc3C=Cc3ccccc32)CC1` [Example 158, 1-(2-Cyanobenzyl)-4-(5H-dibenzo[a,d]cyclohepten-5-ylidene)piperidine hydrochloride]: the “Decrease in systolic blood pressure … (hour) 0.5” value was −8 mmHg and the “Decrease in systolic blood pressure … (hour) 4” value came to 7 mmHg.
Taken in the same sequence, the figures for `Cl.N#Cc1cccc(CN2CCC(=C3c4ccccc4C=Cc4ccccc43)CC2)c1` [Example 159, 1-(3-Cyanobenzyl)-4-(5H-dibenzo[a,d]cyclohepten-5-ylidene)piperidine hydrochloride] were −27 mmHg and −12 mmHg.
On the same counts, the results for `Cl.N#Cc1ccc(CN2CCC(=C3c4ccccc4C=Cc4ccccc43)CC2)cc1` [Example 160, 1-(4-Cyanobenzyl)-4-(5H-dibenzo[a,d]cyclohepten-5-ylidene)piperidine hydrochloride] are −3 mmHg and −10 mmHg.
On the same counts, the results for `C1=Cc2ccccc2C(=C2CCN(Cc3ccccn3)CC2)c2ccccc21.Cl.Cl` [Example 161, 4-(5H-Dibenzo[a,d]cyclohepten-5-ylidene)-1-(2-Picolyl)piperidine dihydrochloride] are −64 mmHg and −12 mmHg.
Regarding `C1=Cc2ccccc2C(=C2CCN(Cc3cccnc3)CC2)c2ccccc21.Cl.Cl` [Example 162, 4-(5H-Dibenzo[a,d]cyclohepten-5-ylidene)-1-(3-Picolyl)piperidine dihydrochloride], the “Decrease in systolic blood pressure … (hour) 0.5” value was −62 mmHg and the “Decrease in systolic blood pressure … (hour) 4” value is on record as −3 mmHg.
As to `C1=Cc2ccccc2C(=C2CCN(Cc3ccncc3)CC2)c2ccccc21.Cl.Cl` [Example 163, 4-(5H-Dibenzo[a,d]cyclohepten-5-ylidene)-1-(4-Picolyl)piperidine dihydrochloride], the “Decrease in systolic blood pressure … (hour) 0.5” value is −1 mmHg and the “Decrease in systolic blood pressure … (hour) 4” value is on record as 4 mmHg.
Taken in the same sequence, the figures for `CCCCCCCCCC(=O)N1CCC(=C2c3ccccc3C=Cc3ccccc32)CC1` [Example 164, 1-Decanolyl-4-(5H-dibenzo[a,d]cyclohepten-5-ylidene)piperidine] were −91 mmHg and −22 mmHg.
Take `Cl.N#CCCCN1CCC(=C2c3ccccc3C=Cc3ccccc32)CC1` [Example 165, 1-Cyano-3-[4-(5H-dibenzo[a,d]cyclohepten-5-ylidene)-1-piperidinyl)propane hydrochloride]: under “hydrochloride, 10 mg/kg”, the “Decrease in systolic blood pressure … (hour) 0.5” value was −22 mmHg and the “Decrease in systolic blood pressure … (hour) 4” value was found to be 12 mmHg.
On the same counts, the results for `Cl.N#CCCCN1CCC(=C2c3ccccc3C=Cc3ccccc32)CC1` [Example 166, 1-Cyano-4-[4-(5H-dibenzo[a,d]cyclohepten-5-ylidene)-1-piperidinyl)propane hydrochloride] are −45 mmHg and 6 mmHg.
With `COc1ccc(C(=O)CCN2CCC(=C3c4ccccc4C=Cc4ccccc43)CC2)cc1OC.Cl` [Example 168, 3-(4-(5H-Dibenzo[a,d]cyclohepten-5-ylidene)-1-piperidinyl)-3′,4′-dimethoxypropiophenone hydrochloride], the “Decrease in systolic blood pressure … (hour) 0.5” value is −108 mmHg and the “Decrease in systolic blood pressure … (hour) 4” value was determined as 0 mmHg.
Turning to `COc1ccc(C(=O)CCCCN2CCC(=C3c4ccccc4C=Cc4ccccc43)CC2)cc1OC.Cl` [Example 169, 5-(4-(5H-Dibenzo[a,d]cyclohepten-5-ylidene)-1-piperidinyl)-3′,4′-dimethoxyvalerophenone hydrochloride], the “Decrease in systolic blood pressure … (hour) 0.5” value is −130 mmHg and the “Decrease in systolic blood pressure … (hour) 4” value is −4 mmHg.
On the same counts, the results for `COc1ccc(C(=O)CCCN2CCC(=C3c4ccccc4C=Cc4ccccc43)CC2)c(OC)c1OC.Cl` [Example 171, 4-(4-(5H-Dibenzo[a,d]cyclohepten-5-ylidene)-1-piperidinyl)-2′,3′,4′-trimethoxybutyrophenone hydrochloride] are −122 mmHg and −8 mmHg.
Turning to `COc1cccc(CN2CCC(=C3c4ccccc4C=Cc4ccccc43)CC2)c1OC.Cl` [Example 173, 4-(5H-Dibenzo[a,d]cyclohepten-5-ylidene)-1-(2,3-dimethoxybenzyl)piperidine hydrochloride], the “Decrease in systolic blood pressure … (hour) 0.5” value was −98 mmHg and the “Decrease in systolic blood pressure … (hour) 4” value is on record as −25 mmHg.
Taken in the same sequence, the figures for `COc1ccc(CN2CCC(=C3c4ccccc4C=Cc4ccccc43)CC2)cc1OC.Cl` [Example 174, 4-(5H-Dibenzo[a,d]cyclohepten-5-ylidene)-1-(3,4-dimethoxybenzyl)piperidine hydrochloride] were −8 mmHg and −16 mmHg.
As to `COc1ccc(CN2CCC(=C3c4ccccc4C=Cc4ccccc43)CC2)cc1OC` [Example 175, 4-(5H-Dibenzo[a,d]cyclohepten-5-ylidene)-1-(3,4-dimethoxybenzyl)piperidine], the “Decrease in systolic blood pressure … (hour) 0.5” value is on record as −87 mmHg and the “Decrease in systolic blood pressure … (hour) 4” value is reported as −1 mmHg.
Taken in the same sequence, the figures for `Cl.O=C(CCCN1CCC(=C2c3ccccc3C=Cc3ccccc32)CC1)C1CCCCC1` [Example 176, 1-Cyclohexyl-3,(4-(5H-dibenzo[a,d]cyclohepten-5-ylidene)-1-piperidinyl)propylketone hydrochloride] were −105 mmHg and −10 mmHg.
As for `Cl.O=C1Cc2ccccc2C(=C2CCN(CCCCC3CCCCC3)CC2)c2ccsc21` [Example 180], the “Decrease in systolic blood pressure … (hour) 0.5” value is −25 mmHg and the “Decrease in systolic blood pressure … (hour) 4” value is given as −24 mmHg.
On the same counts, the results for `Cl.c1ccc2c(c1)Oc1ccccc1C2=C1CCN(CCCCC2CCCCC2)CC1` [Example 181] are −56 mmHg and −27 mmHg.
For `Cl.c1ccc2c(c1)Sc1ccccc1C2=C1CCN(CCCCC2CCCCC2)CC1` [Example 182], the “Decrease in systolic blood pressure … (hour) 0.5” value was −11 mmHg and the “Decrease in systolic blood pressure … (hour) 4” value is reported as −6 mmHg.
Taken in the same sequence, the figures for `COc1cccc(CN2CCC(=C3c4ccccc4CCc4ccccc43)CC2)c1.Cl` [Example 184, 4-(10,11-dihydro-5H-dibenzo[a,d]cyclohepten-5-ylidene)-1-(3-methoxybenzyl)piperidine hydrochloride] were −16 mmHg and −4 mmHg.
As for `CCCCCCCCCCN1CCC(=C2c3ccccc3CCc3ccccc32)CC1.Cl` [Example 185, 1-Decyl-4-(10,11-Dihydro-5H-dibenzo[a,d]cyclohepten-5-ylidene)piperidine hydrochloride], the “Decrease in systolic blood pressure … (hour) 0.5” value was −66 mmHg and the “Decrease in systolic blood pressure … (hour) 4” value was −10 mmHg.
Taken in the same sequence, the figures for `Cl.c1ccc2c(c1)CCc1ccccc1C2=C1CCN(CCCCC2CCCCC2)CC1` [Example 186] were −95 mmHg and −12 mmHg.
Take `COc1ccc(C(=O)CCCN2CCC(=C3c4ccccc4CCc4ccccc43)CC2)cc1OC.Cl` [Example 187, 4-(4-(10,11-Dihydro-5H-dibenzo[a,d]cyclohepten-5-ylidene)-1-piperidinyl)-3′,4′-dimethoxy-butyrophenone hydrochloride]: the “Decrease in systolic blood pressure … (hour) 0.5” value is −47 mmHg and the “Decrease in systolic blood pressure … (hour) 4” value is recorded as −9 mmHg.
For the molecule `COc1cc(CN2CCC(=C3c4ccccc4C=Cc4ccccc43)CC2)cc(OC)c1OC` [Example 188, 4-(5H-Dibenzo[a,d]cyclohepten-5-ylidene)-1-(3,4,5-trimethoxybenzyl)piperidine], the “Decrease in systolic blood pressure … (hour) 0.5” value is listed as −94 mmHg and the “Decrease in systolic blood pressure … (hour) 4” value was −12 mmHg.
